Earlier results as cited in patent US10980860B2, “Diagnosis, prevention and treatment of diseases of the joint” (Ascendis Pharma A/S, priority 2012, dated 2021).

System: osteoarthritis
Conditions: injection into the joint; Chevalier et al, J. Rheumatol 32 (2005); cited from earlier work

IL-1ra: IL-1ra (Anakinra, Kineret®, Swedish Orphan Biovitrum AB)
Reduction of symptoms of osteoarthritis: not significantly reducing the symptoms of osteoarthritis
